Assay results as given in patent US7514562B2, “Urea derivatives and their use as vanilloid receptor antagonists in the treatment of pain” (Glaxo Group Limited, priority 2003, dated 2009).

Target: T1, human VR1 (Homo sapiens, UniProt Q8NER1)
T1 construct: expressed in transfected cells
Assay: FLIPR based calcium assay, antagonism of capsaicin response in 1321N1 cells stably expressing human VR1
Type: cell-based
Details: transfected astrocytoma 1321N1 cells, 30 min pre-incubation, capsaicin challenge; pKb generated from IC50 using the Cheng-Prusoff equation
Experimental: The plates were then washed 4 times with Tyrode containing 1.5 mM calcium, without probenecid. […] Capsaicin (Sigma) was then added to the cells. Compounds having antagonist activity against the human VR1 were identified by detecting differences in fluorescence when measured after capsaicin addition, compared with no compound buffer controls.

T1 sequence (Q8NER1 whole entry): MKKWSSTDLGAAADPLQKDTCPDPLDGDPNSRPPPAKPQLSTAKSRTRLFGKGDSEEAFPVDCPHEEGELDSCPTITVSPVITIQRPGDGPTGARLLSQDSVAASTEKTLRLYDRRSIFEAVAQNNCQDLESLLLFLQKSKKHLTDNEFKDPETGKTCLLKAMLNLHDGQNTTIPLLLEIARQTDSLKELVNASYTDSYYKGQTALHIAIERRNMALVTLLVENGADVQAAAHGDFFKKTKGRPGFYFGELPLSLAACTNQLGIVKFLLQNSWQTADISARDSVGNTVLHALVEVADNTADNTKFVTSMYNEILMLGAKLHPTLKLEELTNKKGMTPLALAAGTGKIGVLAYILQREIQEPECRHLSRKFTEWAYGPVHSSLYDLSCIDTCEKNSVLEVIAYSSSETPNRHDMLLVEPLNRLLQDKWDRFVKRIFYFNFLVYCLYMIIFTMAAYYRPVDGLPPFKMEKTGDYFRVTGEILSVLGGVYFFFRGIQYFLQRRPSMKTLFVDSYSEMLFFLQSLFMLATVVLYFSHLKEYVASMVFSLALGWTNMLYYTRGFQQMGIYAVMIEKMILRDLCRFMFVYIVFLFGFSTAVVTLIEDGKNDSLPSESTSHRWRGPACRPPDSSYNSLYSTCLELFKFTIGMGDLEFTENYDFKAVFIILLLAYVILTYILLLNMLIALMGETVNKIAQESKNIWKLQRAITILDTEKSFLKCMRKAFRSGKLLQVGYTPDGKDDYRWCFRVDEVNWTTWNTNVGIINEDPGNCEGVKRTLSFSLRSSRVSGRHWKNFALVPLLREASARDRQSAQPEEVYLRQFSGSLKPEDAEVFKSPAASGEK

Structure (SMILES): Cc1cc2c(NC(=O)NC3CN(c4ccc(C(F)(F)F)cn4)C3)cccc2nn1 [Example 16]
- Kb: < 100 nM
